How the values were obtained:
[1] = test system: MCF7; test: Induction of apoptosis in human MCF7 cells assessed as viable cells level at 4 uM incubated for 12 hrs by Annexin V-FITC/PI double staining based flow cytometry analysis (reference value: 89%); format: functional
[2] = test system: MCF7; test: Induction of apoptosis in human MCF7 cells assessed as late apoptotic cells level at 8 uM incubated for 24 hrs by Annexin V-FITC/PI double staining based flow cytometry analysis (reference value: 10.1%); format: functional
[3] = test system: MCF7; test: Induction of apoptosis in human MCF7 cells assessed as late necrotic cells level at 4 uM incubated for 24 hrs by Annexin V-FITC/PI double staining based flow cytometry analysis (reference value: 6.88%); format: functional
[4] = test system: MCF7; test: Induction of apoptosis in human MCF7 cells assessed as early apoptotic cells level at 4 uM incubated for 24 hrs by Annexin V-FITC/PI double staining based flow cytometry analysis (reference value: 6.37%); format: functional
[5] = test system: MCF7; test: Suppression of mitochondrial membrane potential in human MCF7 cells assessed as red fluorescent cells level at 2 uM incubated for 12 hrs by rhodamine-123 dye based flow cytometry analysis (reference value: 99.71%); format: functional
[6] = test system: MCF7; test: Induction of apoptosis in human MCF7 cells assessed as late apoptotic cells level at 4 uM incubated for 12 hrs by Annexin V-FITC/PI double staining based flow cytometry analysis (reference value: 3.1%); format: functional
[7] = test system: MCF7; test: Suppression of mitochondrial membrane potential in human MCF7 cells assessed as green fluorescent cells level at 4 uM incubated for 12 hrs by rhodamine-123 dye based flow cytometry analysis (reference value: 0.29%); format: functional
[8] = test system: MCF7; test: Induction of apoptosis in human MCF7 cells assessed as late necrotic cells level at 8 uM incubated for 24 hrs by Annexin V-FITC/PI double staining based flow cytometry analysis (reference value: 1.49%); format: functional
[9] = molecular target: Epidermal growth factor receptor (Homo sapiens, UniProt P00533); test: Inhibition of EGFR (unknown origin) incubated for 30 mins by enzyme immunoassay
Sequence of Epidermal growth factor receptor (P00533 whole entry): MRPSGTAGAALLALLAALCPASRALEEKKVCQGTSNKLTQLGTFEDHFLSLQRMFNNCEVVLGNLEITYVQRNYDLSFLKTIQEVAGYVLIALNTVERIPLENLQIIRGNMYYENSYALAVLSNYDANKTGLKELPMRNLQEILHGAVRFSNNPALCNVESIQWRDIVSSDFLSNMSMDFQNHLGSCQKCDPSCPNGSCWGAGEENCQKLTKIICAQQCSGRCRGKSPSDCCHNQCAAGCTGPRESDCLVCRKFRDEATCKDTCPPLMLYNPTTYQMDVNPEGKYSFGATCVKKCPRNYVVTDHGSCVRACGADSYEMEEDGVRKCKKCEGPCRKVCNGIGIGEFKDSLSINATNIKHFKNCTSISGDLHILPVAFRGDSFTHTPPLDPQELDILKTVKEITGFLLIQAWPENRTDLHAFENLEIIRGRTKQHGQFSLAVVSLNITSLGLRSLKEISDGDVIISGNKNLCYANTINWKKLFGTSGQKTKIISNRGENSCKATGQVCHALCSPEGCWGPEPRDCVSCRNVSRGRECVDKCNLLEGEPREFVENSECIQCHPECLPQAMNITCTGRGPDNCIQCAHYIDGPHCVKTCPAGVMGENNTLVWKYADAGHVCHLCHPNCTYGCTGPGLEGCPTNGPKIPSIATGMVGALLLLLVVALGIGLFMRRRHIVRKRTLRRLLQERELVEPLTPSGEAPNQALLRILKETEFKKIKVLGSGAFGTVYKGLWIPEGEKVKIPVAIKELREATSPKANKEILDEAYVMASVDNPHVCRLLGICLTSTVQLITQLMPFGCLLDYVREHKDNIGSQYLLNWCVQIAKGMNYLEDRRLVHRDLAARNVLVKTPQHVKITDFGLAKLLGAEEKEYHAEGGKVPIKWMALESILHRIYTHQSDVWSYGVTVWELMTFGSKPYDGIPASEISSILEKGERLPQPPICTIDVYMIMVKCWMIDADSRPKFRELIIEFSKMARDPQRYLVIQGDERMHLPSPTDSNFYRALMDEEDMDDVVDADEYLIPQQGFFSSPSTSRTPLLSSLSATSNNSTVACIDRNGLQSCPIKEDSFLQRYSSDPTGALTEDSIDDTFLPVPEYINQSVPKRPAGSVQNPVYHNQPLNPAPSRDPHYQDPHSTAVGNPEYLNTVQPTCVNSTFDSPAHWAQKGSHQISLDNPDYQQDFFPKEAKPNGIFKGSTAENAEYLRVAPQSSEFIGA

[10] = test system: MCF7; test: Suppression of mitochondrial membrane potential in human MCF7 cells assessed as increase in green fluorescent cells incubated for 12 hrs by rhodamine-123 dye based flow cytometry analysis; format: functional, cell-based
[11] = test system: MCF7; test: Induction of apoptosis in human MCF7 cells assessed as late necrotic cells level at 2 uM incubated for 24 hrs by Annexin V-FITC/PI double staining based flow cytometry analysis (reference value: 1.49%); format: functional
[12] = Cytotoxicity in HEK293T cells assessed as reduction in cell viability incubated for 48 hrs by MTT assay; format: cell-based, HEK-293T; details: human
[13] = test system: MCF7; test: Inhibition of cell migration of human MCF7 cells at 4 uM by wound healing assay; format: functional, cell-based; details: TDE = time-dependent effect
[14] = test system: MCF7; test: Induction of apoptosis in human MCF7 cells assessed as viable cells level at 8 uM incubated for 24 hrs by Annexin V-FITC/PI double staining based flow cytometry analysis (reference value: 82%); format: functional
[15] = Inhibition of PDGFR (unknown origin) incubated for 30 mins by enzyme immunoassay; parameters: species or system Homo sapiens
[16] = test system: MCF7; test: Induction of apoptosis in human MCF7 cells at 4 uM by Annexin V-FITC/PI double staining based flow cytometry analysis; format: functional, cell-based; details: TDE = time-dependent effect
[17] = test system: A549; test: Antiproliferative activity against human A549 cells assessed as inhibition of cell proliferation incubated for 48 hrs by MTT assay; format: functional, cell-based; details: A549, 48 h
[18] = test system: MCF7; test: Induction of apoptosis in human MCF7 cells assessed as late apoptotic cells level at 2 uM incubated for 24 hrs by Annexin V-FITC/PI double staining based flow cytometry analysis (reference value: 10.1%); format: functional
[19] = test system: MCF7; test: Induction of apoptosis in human MCF7 cells assessed as viable cells level at 4 uM incubated for 36 hrs by Annexin V-FITC/PI double staining based flow cytometry analysis (reference value: 89%); format: functional
[20] = test system: MCF7; test: Induction of apoptosis in human MCF7 cells assessed as early apoptotic cells level at 2 uM incubated for 24 hrs by Annexin V-FITC/PI double staining based flow cytometry analysis (reference value: 6.37%); format: functional
[21] = test system: MCF7; test: Inhibition of cell migration of human MCF7 cells assessed as relative distance between the edges of the wound at 4 uM incubated for 12 hrs by wound healing assay (reference value: 87.55%); format: functional; parameters: scale not given: the % may be the effect or the level left
[22] = test system: MCF7; test: Induction of apoptosis in human MCF7 cells assessed as late apoptotic cells level at 4 uM incubated for 24 hrs by Annexin V-FITC/PI double staining based flow cytometry analysis (reference value: 3.1%); format: functional
[23] = molecular target: Vascular endothelial growth factor receptor 2 (Homo sapiens, UniProt P35968); test: Inhibition of VEGFR2 (unknown origin) incubated for 30 mins by enzyme immunoassay
Sequence of Vascular endothelial growth factor receptor 2 (P35968 whole entry): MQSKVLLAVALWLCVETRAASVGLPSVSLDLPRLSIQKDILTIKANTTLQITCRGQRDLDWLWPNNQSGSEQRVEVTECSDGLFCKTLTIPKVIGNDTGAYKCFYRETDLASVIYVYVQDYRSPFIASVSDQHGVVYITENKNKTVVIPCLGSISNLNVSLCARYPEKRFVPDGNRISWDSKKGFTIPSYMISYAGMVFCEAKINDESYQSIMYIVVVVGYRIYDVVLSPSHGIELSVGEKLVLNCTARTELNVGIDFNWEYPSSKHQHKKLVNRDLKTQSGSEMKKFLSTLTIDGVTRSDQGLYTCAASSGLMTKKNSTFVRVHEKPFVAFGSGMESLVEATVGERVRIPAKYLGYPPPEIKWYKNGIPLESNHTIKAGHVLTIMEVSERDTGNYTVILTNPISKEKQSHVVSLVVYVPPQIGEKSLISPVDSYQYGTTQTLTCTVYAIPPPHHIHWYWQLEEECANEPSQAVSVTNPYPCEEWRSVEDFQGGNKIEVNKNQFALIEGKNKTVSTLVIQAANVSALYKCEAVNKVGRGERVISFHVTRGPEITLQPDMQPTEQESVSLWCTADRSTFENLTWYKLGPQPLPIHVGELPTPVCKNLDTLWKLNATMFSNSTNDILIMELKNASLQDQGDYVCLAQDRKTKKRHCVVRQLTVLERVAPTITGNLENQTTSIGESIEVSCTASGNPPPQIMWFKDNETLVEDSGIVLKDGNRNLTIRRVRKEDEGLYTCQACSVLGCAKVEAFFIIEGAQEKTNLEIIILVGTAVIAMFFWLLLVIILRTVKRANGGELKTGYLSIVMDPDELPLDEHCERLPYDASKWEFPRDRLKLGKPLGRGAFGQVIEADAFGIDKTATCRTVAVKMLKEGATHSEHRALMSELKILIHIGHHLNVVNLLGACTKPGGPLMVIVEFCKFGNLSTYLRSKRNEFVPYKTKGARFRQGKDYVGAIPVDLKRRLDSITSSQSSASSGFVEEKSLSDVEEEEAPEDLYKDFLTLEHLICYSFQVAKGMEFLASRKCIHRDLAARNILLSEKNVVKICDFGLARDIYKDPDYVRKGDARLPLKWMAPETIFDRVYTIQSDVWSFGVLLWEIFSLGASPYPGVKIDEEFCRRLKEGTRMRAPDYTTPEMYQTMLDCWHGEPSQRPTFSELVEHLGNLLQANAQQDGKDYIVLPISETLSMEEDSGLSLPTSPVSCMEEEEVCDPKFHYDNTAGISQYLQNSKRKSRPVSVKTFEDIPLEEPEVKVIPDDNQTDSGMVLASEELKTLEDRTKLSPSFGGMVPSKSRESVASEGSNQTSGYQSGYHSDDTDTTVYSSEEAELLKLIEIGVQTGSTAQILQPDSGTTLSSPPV

[24] = test system: MCF7; test: Induction of apoptosis in human MCF7 cells assessed as viable cells level at 4 uM incubated for 24 hrs by Annexin V-FITC/PI double staining based flow cytometry analysis (reference value: 89%); format: functional
[25] = test system: MCF7; test: Suppression of mitochondrial membrane potential in human MCF7 cells assessed as red fluorescent cells level at 8 uM incubated for 12 hrs by rhodamine-123 dye based flow cytometry analysis (reference value: 99.71%); format: functional
[26] = test system: MCF7; test: Induction of apoptosis in human MCF7 cells assessed as late necrotic cells level at 4 uM incubated for 12 hrs by Annexin V-FITC/PI double staining based flow cytometry analysis (reference value: 6.88%); format: functional
[27] = test system: MCF7; test: Induction of apoptosis in human MCF7 cells assessed as late apoptotic cells level at 4 uM incubated for 24 hrs by Annexin V-FITC/PI double staining based flow cytometry analysis (reference value: 10.1%); format: functional
[28] = test system: MCF7; test: Induction of apoptosis in human MCF7 cells assessed as late necrotic cells level at 4 uM incubated for 24 hrs by Annexin V-FITC/PI double staining based flow cytometry analysis (reference value: 1.49%); format: functional
[29] = test system: MCF7; test: Induction of apoptosis in human MCF7 cells assessed as late necrotic cells level at 4 uM incubated for 36 hrs by Annexin V-FITC/PI double staining based flow cytometry analysis (reference value: 6.88%); format: functional
[30] = test system: MCF7; test: Induction of apoptosis in human MCF7 cells assessed as late apoptotic cells level at 4 uM incubated for 36 hrs by Annexin V-FITC/PI double staining based flow cytometry analysis (reference value: 3.1%); format: functional
[31] = test system: MCF7; test: Induction of apoptosis in human MCF7 cells assessed as early apoptotic cells level at 4 uM incubated for 12 hrs by Annexin V-FITC/PI double staining based flow cytometry analysis (reference value: 1.06%); format: functional
[32] = test system: MCF7; test: Inhibition of cell migration of human MCF7 cells assessed as relative distance between the edges of the wound at 4 uM incubated for 24 hrs by wound healing assay (reference value: 87.55%); format: functional; parameters: scale not given: the % may be the effect or the level left
[33] = test system: MCF7; test: Suppression of mitochondrial membrane potential in human MCF7 cells assessed as decrease in red fluorescent cells incubated for 12 hrs by rhodamine-123 dye based flow cytometry analysis; format: functional, cell-based
[34] = molecular target: Fibroblast growth factor receptor 1 (Homo sapiens, UniProt P11362); test: Inhibition of bFGFR (unknown origin) incubated for 30 mins by enzyme immunoassay
Sequence of Fibroblast growth factor receptor 1 (P11362 whole entry): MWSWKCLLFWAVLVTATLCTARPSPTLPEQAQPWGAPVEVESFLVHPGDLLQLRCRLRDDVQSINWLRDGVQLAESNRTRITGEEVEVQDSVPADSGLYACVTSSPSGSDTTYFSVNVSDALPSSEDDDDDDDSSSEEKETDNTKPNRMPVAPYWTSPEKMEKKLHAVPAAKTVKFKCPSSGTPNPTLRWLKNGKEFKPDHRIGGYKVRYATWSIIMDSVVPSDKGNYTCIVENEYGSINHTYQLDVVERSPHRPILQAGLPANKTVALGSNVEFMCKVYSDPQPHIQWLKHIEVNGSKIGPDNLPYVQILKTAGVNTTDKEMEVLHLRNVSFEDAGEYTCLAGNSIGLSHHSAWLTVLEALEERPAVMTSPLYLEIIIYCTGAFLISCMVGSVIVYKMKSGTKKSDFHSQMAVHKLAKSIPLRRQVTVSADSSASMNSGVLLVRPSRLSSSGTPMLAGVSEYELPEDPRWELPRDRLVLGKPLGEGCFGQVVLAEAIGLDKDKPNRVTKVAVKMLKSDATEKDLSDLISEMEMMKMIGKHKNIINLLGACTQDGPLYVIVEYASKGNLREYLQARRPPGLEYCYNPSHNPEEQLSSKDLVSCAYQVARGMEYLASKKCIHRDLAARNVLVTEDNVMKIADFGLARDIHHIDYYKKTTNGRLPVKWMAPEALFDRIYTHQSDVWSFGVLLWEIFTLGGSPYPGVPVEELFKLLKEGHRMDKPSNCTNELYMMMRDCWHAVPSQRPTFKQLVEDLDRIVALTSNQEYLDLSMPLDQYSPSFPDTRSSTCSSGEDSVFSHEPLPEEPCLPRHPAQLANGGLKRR

[35] = test system: HeLa; test: Antiproliferative activity against human HeLa cells assessed as inhibition of cell proliferation incubated for 48 hrs by MTT assay; format: functional, cell-based
[36] = test system: MCF7; test: Suppression of mitochondrial membrane potential in human MCF7 cells assessed as green fluorescent cells level at 2 uM incubated for 12 hrs by rhodamine-123 dye based flow cytometry analysis (reference value: 0.29%); format: functional

## Cc1ccc(-n2cc(NC(=O)c3cccc(NS(=O)(=O)c4ccc(Cl)cc4)c3)cn2)cc1
[1]
  Activity: 65.6%
[2]
  Activity: 45.2%
[3]
  Activity: 1.14%
[4]
  Activity: 11.9%
[5]
  Activity: 87.6%
[6]
  Activity: 11.3%
[7]
  Activity: 19.4%
[8]
  Activity: 3.76%
[9]
  IC50: 8.77 µM
[10]
  Activity: Dose-dependent effect
[11]
  Activity: 2.32%
[12]
  CC50 at 48 h: 110 µM
[13]
  inhibition: Tde
[14]
  Activity: 41.4%
[15]
  IC50: 14.1 µM
[16]
  Activity: Tde
[17]
  IC50: 15.6 µM
[18]
  Activity: 17.7%
[19]
  Activity: 47.6%
[20]
  Activity: 9.7%
[21]
  Activity: 90.9%
[22]
  Activity: 18.7%
[23]
  IC50: 0.34 µM
[24]
  Activity: 58.5%
[25]
  Activity: 62.85%
[26]
  Activity: 0.349%
[27]
  Activity: 21.4%
[28]
  Activity: 2.62%
[29]
  Activity: 1.03%
[30]
  Activity: 20.9%
[31]
  Activity: 22.7%
[32]
  Activity: 77.3%
[33]
  Activity: Dose-dependent effect
[34]
  IC50: 17.2 µM
[35]
  IC50: 4.57 µM
[36]
  Activity: 12.4%

— ChEMBL document CHEMBL4385653, “Design, synthesis, biological evaluation of benzoyl amide derivatives containing nitrogen heterocyclic ring as potential VEGFR-2 inhibitors” (Bioorg Med Chem, 2019)
